Test results reported in ChEMBL document CHEMBL1151682, “Insecticidal neolignans from Piper decurrens” (J Nat Prod, 1996).
Active and inactive are the calls of the source. The rule behind the calls is not given here.

Tested on: Aedes atropalpus
Assay: Toxicity in sOchlerotatus atropalpus second-instar larvae at 10 ppm after 24 hrs
Format: functional, organism-based

| SMILES | Activity |
| --- | --- |
| c1csc(-c2ccc(-c3cccs3)s2)c1 | Active |
| C/C=C/c1ccc2oc(-c3ccc(O)cc3)c(C)c2c1 | Active |
| C[C@H]1c2cc(C=O)ccc2O[C@@H]1c1ccc(O)cc1 | inactive |
